“And” between values parts separate entries of the source, which are not always exact repeats. Equal entries are not always repeated. “Also recorded” adds a separate entry of the source. Where two headings read alike, the source gives them in different places.
Assay: Tigecycline plasma PK and % F after PO enteric-coated capsule in dogs
Assay type: in vivo, Beagle dogs
Settings: for bioavailability / AUC(0-t) / Cmax / Tmax / concentration at 0 min / concentration at 15 min / concentration at 30 min / concentration at 45 min: female, beagle, dog, plasma, po, 15 mg; for Tmax: read-out: Tmax (converted); for concentration at 0 min / concentration at 15 min / concentration at 30 min / concentration at 45 min: Tigecycline Plasma Concentration
Description: Adult beagle dogs weighing approximately 9 to 15 kg were used in the study. […] Room temperature was set to be maintained between approximately 20±5° C. Relative humidity was monitored but not controlled.
TEKLAD™ Certified Canine Diet was provided once daily in amounts (˜400 grams) appropriate for the size and age of the animals. Tap water was available ad libitum via automatic watering device or water bowls.
Oral dosing of enteric-coated capsules was accomplished by administering them to the back of the dog's mouth, followed by a chase of 5 mL water to ensure swallowing.
Water was provided ad libitum. […] Subsequently, each group of animals was dosed based on the protocol, i.e. either IV, or PO by capsule.
Minocycline (VWR international) was used as an internal standard. Sample processing/clean-up of plasma samples was carried out offline by protein precipitation with acidified acetonitrile using 0.5% trifluoroacetic acid (TFA).
The HPLC system consisted of Shimadzu SIL-HTc HPLC system equipped with dual Shimadzu LC-10ADvp isopumps, a Shimadzu CTO-10ASvp column temperature controller and a Shimadzu SPD-10Avp variable wavelength detector. […] Mobile phase A consisted of 23 mM phosphate buffer pH 2.5 with 4 mM 1-octanesulfonic acid, while mobile phase B consisting of 90% acetonitrile, 10% water, with 2 mM 1-octanesulfonic acid. […] The total runtime was 18 minutes per sample. The mobile phase flow rate was 1.2 mL/min. Detection was performed using the SPD-10Avp variable wavelength detector set at 350 nm, with a sensitivity of 0.001 aufs.
The samples were then centrifuged under refrigeration at 13 k rpm for 5 minutes. The supernatant was taken and the liquid removed to dryness under nitrogen in a turbovap. The dried extract was reconstituted in 60 μL of mobile phase A and the suspension was further centrifuged at 5 k rpm for 5 minutes to pellet any insoluble matter. The resulting supernatant was then injected onto the LC.
The unknown concentration in dog plasma samples was determined by interpolation of the peak area ratios of analyte:internal standard versus the ratio of their nominal concentrations into the regression line obtained from calibration standards spiked in pooled dog plasma. No regression weighting was used for the calculations. […] The calibration curve covered the range of 0.05 μg/mL to 5 μg/mL. […]
The capsules were enterically coated using a standard preclinical protocol to 10% weight gain. Two studies were conducted.

[1] = 15 min, PO 15 mg unformulated enteric-coated capsule, SC424, individual dogs
[2] = 30 min, PO 15 mg unformulated enteric-coated capsule, SC424, individual dogs
[3] = 45 min, PO 15 mg unformulated enteric-coated capsule, SC424, individual dogs

## CN(C)c1cc(NC(=O)CNC(C)(C)C)c(O)c2c1C[C@H]1C[C@H]3[C@H](N(C)C)C(O)=C(C(N)=O)C(=O)[C@@]3(O)C(O)=C1C2=O [Tigecycline]
[1]
  Tigecycline Plasma Concentration: 0.00 ng/mL
  concentration at 15 min: 0 ng/mL
[2]
  Tigecycline Plasma Concentration: 0.00 ng/mL
  concentration at 30 min: 0 ng/mL
[3]
  Tigecycline Plasma Concentration: 0.00 ng/mL
  concentration at 45 min: 0 ng/mL
60 min, PO 15 mg unformulated enteric-coated capsule, SC424, individual dogs
  Tigecycline Plasma Concentration: 0.00 ng/mL
75 min, PO 15 mg unformulated enteric-coated capsule, SC424, individual dogs
  Tigecycline Plasma Concentration: 0.00 ng/mL
90 min, PO 15 mg unformulated enteric-coated capsule, SC424, individual dogs
  Tigecycline Plasma Concentration: 0.00 ng/mL
120 min, PO 15 mg unformulated enteric-coated capsule, SC424, individual dogs
  Tigecycline Plasma Concentration: 0.00 ng/mL
150 min, PO 15 mg unformulated enteric-coated capsule, SC424, individual dogs
  Tigecycline Plasma Concentration: 0.00 ng/mL
PO 15 mg enteric-coated capsule with 500 mg CA and 100 mg LLC, SC424, calculated from IV data of SC427, individual dogs
  % F: 13.6% and 3.9% and 30.3% and 17.0% and 2.0% and 8.3% and 12.0% and 10.6%
PO 15 mg unformulated (microcrystalline cellulose filler) enteric-coated capsule (SC424)
  plasma exposure: No tigecycline exposure was observed; also recorded: did not result in observable plasma exposure
PO 30 mg enteric-coated capsule with 500 mg CA and 100 mg LLC, SC430, calculated from IV PK data of SC431, individual dogs
  % F: 7.9% and 23.3% and 12.8% and 2.6%
PO 30 mg unformulated (microcrystalline cellulose filler) enteric-coated capsule (SC430)
  plasma exposure: No tigecycline exposure was observed; also recorded: did not result in observable plasma exposure
PO 45 mg enteric-coated capsule with 500 mg CA and 100 mg LLC, SC430, calculated from IV PK data of SC431, individual dogs
  % F: 18.4% and 6.3% and 6.4% and 14.8% and 31.8%
15 mg Formulated (500 mg CA, 100 mg LLC) enteric coated capsule, Study 1 (SC424), mean (% CV), read-out: % F
  bioavailability: 12.2%
15 mg Formulated (500 mg CA, 100 mg LLC) enteric coated capsule, Study 1 (SC424), mean (% CV), read-out: AUC(0-t)
  AUC(0-t): 133 ng·h/mL
15 mg Formulated (500 mg CA, 100 mg LLC) enteric coated capsule, Study 1 (SC424), mean (% CV), read-out: Cmax
  Cmax: 75.5 ng/mL
15 mg Formulated (500 mg CA, 100 mg LLC) enteric coated capsule, Study 1 (SC424), mean (% CV)
  Tmax: 1.85 h
15 mg Unformulated enteric coated capsule, Study 1 (SC424), read-out: % F
  bioavailability: 0%
PO 15 mg ([…]) enteric-coated capsule with 500 mg CA and 100 mg LLC (SC424), read-out: AUC(0-t), mean
  AUC(0-t): 133 ng·h/mL
PO 15 mg ([…]) enteric-coated capsule with 500 mg CA and 100 mg LLC (SC424), read-out: Cmax, mean
  Cmax: 75.5 ng/mL
PO 15 mg ([…]) enteric-coated capsule with 500 mg CA and 100 mg LLC (SC424), read-out: absolute % F, mean
  bioavailability: 12.2%
PO 15 mg enteric-coated capsule with 500 mg CA and 100 mg LLC (SC424), read-out: % F, range of individual dogs
  bioavailability: 2 to 30%
PO 15 mg enteric-coated capsule with 500 mg CA and 100 mg LLC ([…]), SC424, mean, read-out: AUC(0-t)
  AUC(0-t): 133 ng·h/mL
PO 15 mg enteric-coated capsule with 500 mg CA and 100 mg LLC ([…]), SC424, mean, read-out: Cmax
  Cmax: 75.5 ng/mL
PO 15 mg enteric-coated capsule with 500 mg CA and 100 mg LLC ([…]), SC424, mean
  Tmax: 1.85 h
PO 15 mg enteric-coated capsule with 500 mg CA and 100 mg LLC, SC424, calculated from IV data of SC427, mean, read-out: % F
  bioavailability: 12.2%
PO 15 mg unformulated enteric-coated capsule ([…]), SC424, individual dogs, read-out: % F
  bioavailability: 0%
PO 15 mg unformulated enteric-coated capsule ([…]), SC424, mean, read-out: % F
  bioavailability: 0%
Study 1 (SC424), 15 mg Formulated enteric coated capsule (500 mg citric acid, 100 mg LLC), oral, dogs, N=8, mean (% CV), based on that study's IV arm, read-out: % F
  bioavailability: 12.2%
Study 1 (SC424), 15 mg Formulated enteric coated capsule (500 mg citric acid, 100 mg LLC), oral, dogs, N=8, mean (% CV)
  Tmax: 1.85 h
Study 1 (SC424), 15 mg Formulated enteric coated capsule (500 mg citric acid, 100 mg LLC), oral, dogs, N=8, mean (% CV), sampling 4 h, read-out: AUC(0-t)
  AUC(0-t): 133 ng·h/mL
Study 1 (SC424), 15 mg Formulated enteric coated capsule (500 mg citric acid, 100 mg LLC), oral, dogs, N=8, mean (% CV), sampling 4 h, read-out: Cmax
  Cmax: 75.5 ng/mL
Study 1 (SC424), 15 mg Unformulated enteric coated capsule (microcrystalline cellulose filler), oral, dogs, N=8, based on that study's IV arm, read-out: % F
  bioavailability: 0%
PO 15 mg enteric-coated capsule with 500 mg CA and 100 mg LLC, SC424, individual dogs
  concentration at 0 min: 0 ng/mL
PO 15 mg enteric-coated capsule with 500 mg CA and 100 mg LLC, SC424, mean
  concentration at 0 min: 0 ng/mL
15 min, PO 15 mg enteric-coated capsule with 500 mg CA and 100 mg LLC, SC424, individual dogs
  concentration at 15 min: 0 ng/mL
15 min, PO 15 mg enteric-coated capsule with 500 mg CA and 100 mg LLC, SC424, mean
  concentration at 15 min: 0 ng/mL
15 min, PO 15 mg unformulated enteric-coated capsule, SC424, mean
  concentration at 15 min: 0 ng/mL
30 min, PO 15 mg enteric-coated capsule with 500 mg CA and 100 mg LLC, SC424, individual dogs
  concentration at 30 min: 0 ng/mL
30 min, PO 15 mg enteric-coated capsule with 500 mg CA and 100 mg LLC, SC424, mean
  concentration at 30 min: 0 ng/mL
30 min, PO 15 mg unformulated enteric-coated capsule, SC424, mean
  concentration at 30 min: 0 ng/mL
45 min, PO 15 mg enteric-coated capsule with 500 mg CA and 100 mg LLC, SC424, mean
  concentration at 45 min: 8.45 ng/mL
45 min, PO 15 mg unformulated enteric-coated capsule, SC424, mean
  concentration at 45 min: 0 ng/mL

— patent US9526785B2, “Pharmaceuticals for oral delivery” (Enteris BioPharma, Inc., priority 2013, dated 2016)
